Measured values from ChEMBL document CHEMBL1134080, “Indazolylamino quinazolines and pyridopyrimidines as inhibitors of the EGFr and C-erbB-2” (Bioorg Med Chem Lett, 2001).

Key:
[1] = target: Receptor tyrosine-protein kinase erbB-2 (Rattus norvegicus, UniProt P06494); assay: Inhibition of rat Receptor protein-tyrosine kinase erbB2
[2] = target: Epidermal growth factor receptor and ErbB2 (HER1 and HER2) (Homo sapiens) (UniProt P04626+P00533); assay: Selectivity for EGF receptor and c-erbB-2; format: protein assay
[3] = target: Dual specificity mitogen-activated protein kinase kinase; MEK1/2 (Homo sapiens, UniProt P36507+Q02750); assay: Inhibition of MAPK kinase (MEK); format: protein assay
[4] = Bioavailability was measured in mouse; format: ADME, organism-based; details: in vivo
[5] = target: Cyclin-dependent kinase 2 (Homo sapiens, UniProt P24941); assay: Inhibition of Cyclin-dependent kinase 2
[6] = target: Proto-oncogene tyrosine-protein kinase Src (Homo sapiens, UniProt P12931); assay: Inhibition of Src kinase
[7] = target: Cyclin-dependent kinase 1 (Homo sapiens, UniProt P06493); assay: Inhibition of Cyclin-dependent kinase 1
[8] = Pharmacokinetic property (Plasma clearance) was measured in mouse; format: ADME, organism-based
[9] = Pharmacokinetic property (Plasma clearance) was measured in dog; format: ADME, organism-based, Canis lupus familiaris
[10] = target: RAF proto-oncogene serine/threonine-protein kinase (Homo sapiens, UniProt P04049); assay: Inhibition of Raf kinase
[11] = Bioavailability in dog; format: ADME, organism-based, Canis lupus familiaris; details: in vivo
[12] = Half-life was measured in mouse; format: ADME, organism-based; details: in vivo
[13] = Half-life was measured in dog; format: ADME, organism-based, Canis lupus familiaris; details: in vivo
[14] = Pharmacokinetic property (Plasma clearance) was measured in rat; format: ADME, organism-based
[15] = Half-life was measured in rat; format: ADME, organism-based; details: in vivo
[16] = tested on: MRC5; assay: Inhibition of MRC5 cell proliferation; format: functional, cell-based; details: Homo sapiens
[17] = tested on: HB4a; assay: Inhibition of RAS overexpressing HB4a.R4.2 cell proliferation; format: functional, cell-based; details: Homo sapiens
[18] = Bioavailability was measured in rat; format: ADME, organism-based; details: in vivo

Sequence of Receptor tyrosine-protein kinase erbB-2 (P06494 whole entry): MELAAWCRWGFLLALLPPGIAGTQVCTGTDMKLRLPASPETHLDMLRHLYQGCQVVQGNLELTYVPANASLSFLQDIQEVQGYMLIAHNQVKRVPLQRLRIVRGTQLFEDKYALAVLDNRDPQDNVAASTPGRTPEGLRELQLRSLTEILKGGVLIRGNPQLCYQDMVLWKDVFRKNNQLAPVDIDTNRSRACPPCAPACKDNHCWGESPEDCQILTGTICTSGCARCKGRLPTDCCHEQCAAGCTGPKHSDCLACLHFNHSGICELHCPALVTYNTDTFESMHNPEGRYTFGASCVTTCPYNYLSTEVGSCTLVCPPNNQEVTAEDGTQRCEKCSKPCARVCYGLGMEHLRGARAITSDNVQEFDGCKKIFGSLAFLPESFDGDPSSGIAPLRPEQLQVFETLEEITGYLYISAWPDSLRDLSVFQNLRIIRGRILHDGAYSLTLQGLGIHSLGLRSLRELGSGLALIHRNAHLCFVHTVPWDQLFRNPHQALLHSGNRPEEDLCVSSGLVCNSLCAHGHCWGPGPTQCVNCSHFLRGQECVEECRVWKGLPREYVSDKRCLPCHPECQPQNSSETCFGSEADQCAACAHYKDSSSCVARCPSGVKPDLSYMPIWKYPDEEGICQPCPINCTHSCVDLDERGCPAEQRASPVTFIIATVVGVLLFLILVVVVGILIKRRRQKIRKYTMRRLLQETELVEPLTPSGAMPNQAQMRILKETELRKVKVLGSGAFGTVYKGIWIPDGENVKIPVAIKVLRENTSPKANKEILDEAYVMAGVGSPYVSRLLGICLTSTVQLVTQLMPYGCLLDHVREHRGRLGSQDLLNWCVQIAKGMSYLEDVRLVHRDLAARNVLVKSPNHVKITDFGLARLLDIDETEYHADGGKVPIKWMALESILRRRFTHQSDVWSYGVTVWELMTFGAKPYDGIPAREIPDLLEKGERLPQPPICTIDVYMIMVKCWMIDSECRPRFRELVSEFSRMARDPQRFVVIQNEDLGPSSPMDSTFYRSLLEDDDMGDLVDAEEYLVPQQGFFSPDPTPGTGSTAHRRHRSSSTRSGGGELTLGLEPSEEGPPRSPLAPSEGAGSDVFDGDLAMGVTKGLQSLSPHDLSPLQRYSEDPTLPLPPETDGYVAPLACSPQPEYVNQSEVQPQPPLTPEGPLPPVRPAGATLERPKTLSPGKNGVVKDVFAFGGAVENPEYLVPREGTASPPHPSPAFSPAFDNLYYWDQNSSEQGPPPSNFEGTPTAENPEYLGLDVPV
Sequence of Proto-oncogene tyrosine-protein kinase Src (P12931 2-536 limits assumed): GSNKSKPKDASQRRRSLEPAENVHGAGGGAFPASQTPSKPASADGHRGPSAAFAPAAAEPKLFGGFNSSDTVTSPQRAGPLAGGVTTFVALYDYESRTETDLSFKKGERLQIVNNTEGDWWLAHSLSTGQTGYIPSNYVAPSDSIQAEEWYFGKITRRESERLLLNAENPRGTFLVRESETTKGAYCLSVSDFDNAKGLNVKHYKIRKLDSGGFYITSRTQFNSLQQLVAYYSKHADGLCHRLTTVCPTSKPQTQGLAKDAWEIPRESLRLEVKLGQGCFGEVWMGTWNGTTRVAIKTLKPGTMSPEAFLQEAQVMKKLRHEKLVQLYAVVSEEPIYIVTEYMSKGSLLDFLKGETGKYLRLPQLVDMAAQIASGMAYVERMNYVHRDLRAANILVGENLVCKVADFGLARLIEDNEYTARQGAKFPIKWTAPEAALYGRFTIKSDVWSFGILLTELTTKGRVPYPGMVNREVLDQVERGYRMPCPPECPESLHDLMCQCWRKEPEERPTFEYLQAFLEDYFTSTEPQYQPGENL
Sequence of RAF proto-oncogene serine/threonine-protein kinase (P04049 whole entry): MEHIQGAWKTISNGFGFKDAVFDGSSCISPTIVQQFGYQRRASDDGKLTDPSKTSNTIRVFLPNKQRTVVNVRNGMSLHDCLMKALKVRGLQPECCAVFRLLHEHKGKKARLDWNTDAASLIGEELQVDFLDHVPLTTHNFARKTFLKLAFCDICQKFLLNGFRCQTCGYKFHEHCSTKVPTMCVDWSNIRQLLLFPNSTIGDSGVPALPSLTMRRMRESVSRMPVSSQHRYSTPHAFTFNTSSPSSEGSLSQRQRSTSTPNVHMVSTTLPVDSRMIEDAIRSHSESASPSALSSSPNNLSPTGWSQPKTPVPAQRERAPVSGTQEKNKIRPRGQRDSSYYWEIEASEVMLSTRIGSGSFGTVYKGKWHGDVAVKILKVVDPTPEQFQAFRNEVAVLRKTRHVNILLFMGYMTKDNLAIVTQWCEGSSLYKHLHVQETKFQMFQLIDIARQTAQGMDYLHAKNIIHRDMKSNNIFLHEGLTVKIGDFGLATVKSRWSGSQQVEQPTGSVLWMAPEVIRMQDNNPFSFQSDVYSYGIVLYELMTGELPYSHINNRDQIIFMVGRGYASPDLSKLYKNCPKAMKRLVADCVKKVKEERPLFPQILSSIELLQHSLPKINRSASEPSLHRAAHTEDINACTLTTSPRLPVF
Sequence of Cyclin-dependent kinase 1 (P06493 whole entry): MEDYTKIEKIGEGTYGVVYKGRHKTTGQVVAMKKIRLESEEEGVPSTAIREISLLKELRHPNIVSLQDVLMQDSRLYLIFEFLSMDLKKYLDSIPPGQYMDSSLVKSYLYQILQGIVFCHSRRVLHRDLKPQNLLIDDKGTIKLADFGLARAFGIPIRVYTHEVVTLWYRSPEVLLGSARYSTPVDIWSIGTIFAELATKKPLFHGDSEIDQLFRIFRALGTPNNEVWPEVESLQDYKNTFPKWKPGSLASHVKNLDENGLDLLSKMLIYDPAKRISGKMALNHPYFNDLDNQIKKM

| SMILES | IC50 [1] [nM] | Selectivity [2] | also measured |
| --- | --- | --- | --- |
| c1ccc(Cn2ccc3cc(Nc4ncnc5ccccc45)ccc32)cc1 | 90 |  |  |
| c1ccc(Cn2cnc3ccc(Nc4ncnc5ccccc45)cc32)cc1 | 4400 | 27 |  |
| c1ccc(Cc2nc3ccc(Nc4ncnc5ccccc45)cc3[nH]2)cc1 | 560 | 36 |  |
| c1ccc(Cn2cnc3cc(Nc4ncnc5ccccc45)ccc32)cc1 | 6600 | 39 |  |
| COc1cc2ncnc(Nc3ccc4nn(Cc5ccccc5)cc4c3)c2cc1OC | 290 | 8.9 |  |

The next compounds have a lower IC50 [1] than those just listed; values first:

| IC50 [1] [nM] | Selectivity [2] | SMILES | also measured |
| --- | --- | --- | --- |
| 49 | 18.5 | Nc1cc2c(Nc3ccc4[nH]c(Cc5ccccc5)nc4c3)ncnc2cn1 |  |
| 49 | 12.5 | COc1cc2ncnc(Nc3ccc4c(ccn4Cc4ccccc4)c3)c2cc1OC |  |
| 27 | > 5.6 | Nc1cc2c(Nc3ccc4c(cnn4Cc4ccccc4)c3)ncnc2cn1 |  |
| 26 |  | Nc1cc2c(Nc3ccc4c(ccn4Cc4ccccc4)c3)ncnc2cn1 |  |
| 18 |  | CN(C)c1cc2c(Nc3ccc4c(cnn4Cc4ccccc4)c3)ncnc2cn1 [GW282974X] | IC50 [3]: 9700 nM; bioavailability [4]: > 23%; IC50 [5]: > 8000 nM; IC50 [6]: > 50000 nM; IC50 [7]: > 8000 nM; clearance [8]: > 27 mL/min/kg; clearance [9]: 34 mL/min/kg; IC50 [10]: 49000 nM; bioavailability [11]: 82%; half-life [12]: 20 min; half-life [13]: 44 min; clearance [14]: 19 mL/min/kg; half-life [15]: 18 min; IC50 [16]: > 50000 nM; IC50 [17]: 30000 nM; bioavailability [18]: 24% |
| 10 | 19 | COc1cc2ncnc(Nc3ccc4nc(Cc5ccccc5)[nH]c4c3)c2cc1OC |  |
| 10 |  | c1ccc(Cn2ncc3cc(Nc4ncnc5ccccc45)ccc32)cc1 |  |
| 1 | > 5.6 | COc1cc2ncnc(Nc3ccc4c(cnn4Cc4ccccc4)c3)c2cc1OC |  |
